Assay type in all cases: cell-based
The subject of experiment [1] is primary human mesenchymal stem cells (hMSCs). The experiment in a line: Induction of chondrogenesis in primary human mesenchymal stem cells (chondrogenic nodules, Rhodamine B / Nile Red). The following applies: 6 days; for Emax: relative to TGF-β3 (10 ng/mL) positive control, read-out: Max. Activity as % TGF-β3 activity. The source says:
Representative compounds were screened using primary human mesenchymal stem cells (hMSCs) to determine their ability to induce chondrogenesis (process by which cartilage is developed).
Human Mesenchymal Stem Cell Culture: Primary human mesenchymal stem cells (hMSCs) were purchased from Lonza (Walkersville, Md.) and expanded in Mesenchymal Stem Cell Growth Media (Lonza). Cells between passage 3 and 6 were used for the experiments.
To image chondrogenic nodules, the cells were fixed using 4% formaldehyde (Electron Microscopy Sciences), and stained with 2 μg/mL Rhodamine B (Sigma-Aldrich) and 20 μM Nile Red (Sigma-Aldrich) [Johnson K., et. al, A Stem Cell-Based Approach to Cartilage Repair, Science, (2012). […] Number of nodules in each well was normalized to the average of 3 DMSO treated wells on the same plate using Excel (Microsoft Inc.). The normalized averages (fold change over DMSO) of 3 replicate wells for each compound concentration were calculated. Due to solubility limitations of some of the compounds, curve fitting was incomplete leading to inaccurate EC50 determinations.
Using TGF-β3 as a positive control, the concentration of representative compounds required to induce 50% levels of chondrogenesis is reported. In addition, the maximum activity of each compound and the respective dose that each compound reached maximum chondrogenesis activity is reported.

The test system of the next experiment is SW480 colon cancer cells. The experiment in a line: Cell viability assay (CellTiter-Blue) in SW480 colon cancer cells. To be noted: Homo sapiens; for EC50: 96 h, SW480 cell viability, four days, CellTiter-Blue; for inhibition at 10 µM: SW480, read-out: percent inhibition at 10 μM. The method, then:
Representative compounds were screened using the following assay procedure to assess the effect on cell viability as described below.
Approximately 2×10^3 SW480 colon cancer cells were seeded into each well and allowed to incubate in the presence or absence of compound for four days at 37° C./5% CO2. Eight replicates of DMSO-treated cells served as controls and cells treated with compound were performed in duplicate.
After incubation, 20 μL of CellTiter-Blue (Promega) was added to each well allowed to incubate for approximately 3 hours. This reagent was a buffered solution which contains resazurin, metabolically active cells were able to reduce rezarurin (blue) into resorufin (pink) which was highly fluorescent. This measured fluorescence was used as a readout for cell viability.

The test system of another experiment is IL-6 in THP-1 cells. The experiment in a line: IL-6 inhibition in LPS-stimulated THP-1 human monocyte cells (HTRF). To be noted: for EC50: IL-6 inhibition, LPS-stimulated THP-1 cells, HTRF, 10-point dose-response starting from 10 μM; for inhibition at 10 µM: THP-1, read-out: percentage in parentheses beside EC50 >10. The method, then: Compound Screening: THP-1 cells were cultured in basal media with 1% FBS for 24 hours before the start of the assay. […] THP-1 cells were plated at 5000 cells/well in the 384-well plates and incubated at 37° C. for 2 h. 500 ng/mL of LPS was added after 2 hours and cells were incubated for another 22 hours at 37° C. Plates were spun in a centrifuge for 1 minute at […] and a mixture of anti-IL6 XL665, and anti-IL6 Cryptate diluted in reconstitution buffer (Cisbio Inc.) was added to each well. Following incubation for 3 hrs at room temperature, Homogeneous Time-Resolved Fluorescence (HTRF) was measured using the Envision (Perkin Elmer) at 665 nm and […]. The ratio of fluorescence at 665 nm to 620 nm was used as a readout for IL6 quantification. All samples were processed in duplicate. Readings were normalized to DMSO treated cells and normalized activities were utilized for EC50 calculations using the dose-response log (inhibitor) vs. response variable slope (four parameters) nonlinear regression feature available in GraphPad Prism 5.0 (or Dotmatics).
In general terms: In TR-FRET formats the signal depends on donor and acceptor labels being close together.

Experiment [2] concerns LL29 cells (primary human fibroblasts derived from IPF patients), α-smooth muscle actin. The experiment in a line: Inhibition of the fibrotic process: αSMA staining in TGF-β1 treated primary human fibroblasts from IPF patients (LL29 cells). The following applies: Fibroblast; for EC50: 96 h, LL29 cells, TGF-β1 20 ng/mL, 4 days, % αSMA positive cells; for inhibition at 10 µM: read-out: percent inhibition at 10 μM. As to the method: Representative compounds were screened using primary human fibroblasts (derived from IPF patients) treated with TGF-β1 to determine their ability to inhibit the fibrotic process.
LL29 cells are plated at 1,500 cells/well in 80 μL/well F12 medium supplemented with 1% Fetal Bovine Serum. […] Wells treated with TGF-β1 and containing DMSO were used as controls. […] Following incubation for 4 days, SYTOX green nucleic acid stain (Life Technologies [Thermo Fisher Scientific]) was added to the wells at a final concentration of 1 μM and incubated at room temperature for 30 min.

Experiment [3] relates to Wnt activity (Sp5-Luc reporter, TCF/LEF binding sites) in SW480 colon carcinoma cells. The experiment in a line: Wnt activity screening assay: Sp5-Luc reporter gene assay in SW480 cells. The following applies: Homo sapiens; for inhibition at 10 µM: SW480, read-out: percent inhibition at 10 μM; for EC50: Sp5-Luc reporter, SW480 cells, overnight incubation. The text has this: The screening assay for Wnt activity is described as follows. Reporter cell lines can be generated by stably transducing cancer cell lines (e.g., colon cancer) or primary cells (e.g., IEC-6 intestinal cells) with a lentiviral construct that includes a Wnt-responsive promoter driving expression of the firefly luciferase gene.
SW480 colon carcinoma cells were transduced with a lentiviral vector expressing luciferase with a human Sp5 promoter consisting of a sequence of eight TCF/LEF binding sites. SW480 cells stably expressing the Sp5-Luc reporter gene and a hygromycin resistance gene were selected by treatment with 150 μg/mL of hygromycin for 7 days. These stably transduced SW480 cells were expanded in cell culture and used for all further screening activities. […] For Sp5-Luc reporter gene assays, the cells were plated at 4,000 cells/well in 384-well plates with medium containing 1% fetal bovine serum and incubated overnight at 37° C. and 5% CO2. Following incubation, 20 μl of BrightGlo luminescence reagent (Promega) was added to each well of the 384-well assay plates. The plates were placed on an orbital shaker for 2 min and then luminescence was quantified using the Envision (Perkin Elmer) plate reader. Readings were normalized to DMSO only treated cells, and normalized activities were utilized for EC50 calculations using the dose-response log (inhibitor) vs. response variable slope (four parameters) nonlinear regression feature available in GraphPad Prism 5.0 (or Dotmatics).
For orientation: In a reporter assay the amount or activity of a reporter protein is the signal.

11 molecules from US10226448B2, “3-(1H-pyrrolo[3,2-C]pyridin-2-yl)-1H-pyrazolo[3,4-B]pyridines and therapeutic uses thereof” (Samumed, LLC, priority 2015, dated 2019) can be followed below.

Bounds are passed on as bounds.

Regarding `CCCCC(=O)Nc1cncc(-c2cnc3[nH]nc(-c4cc5c(-c6ccc(F)cc6)nccc5[nH]4)c3c2)c1` [Compound 47, N-(5-(3-(4-(4-Fluorophenyl)-1H-pyrrolo[3,2-c]pyridin-2-yl)-1H-pyrazolo[3,4-b]pyridin-5-yl)pyridin-3-yl)pentanamide], the EC50 in experiment [1] (concentration required to induce 50% levels of chondrogenesis vs TGF-β3, read-out: Conc (nM) of 50% TGF-β3 activity) is 30 nM; in the experiment on SW480 colon cancer cells it was 839 nM; in the experiment with IL-6 in THP-1 cells, above 10000 nM; in experiment [2] it was 73 nM; in experiment [3] it was above 10000 nM. In experiment [1], the Emax amounted to 85%. For the same molecule, the inhibition at 10 µM with IL-6 in THP-1 cells turned out to be 24.7%; in experiment [3] it was 46.9%.

As to `O=C(Nc1cncc(-c2cnc3[nH]nc(-c4cc5c(-c6ccccc6F)nccc5[nH]4)c3c2)c1)C1CCCC1` [Compound 78, N-(5-(3-(4-(2-Fluorophenyl)-1H-pyrrolo[3,2-c]pyridin-2-yl)-1H-pyrazolo[3,4-b]pyridin-5-yl)pyridin-3-yl)cyclopentanecarboxamide], the Emax in experiment [1] was 51%. Moreover, the EC50 in the experiment on SW480 colon cancer cells is 651 nM; in the experiment with IL-6 in THP-1 cells, 505 nM; in experiment [2], above 10000 nM; in experiment [3], 960 nM. Further, the inhibition at 10 µM in experiment [2] turned out to be 12.7%.

In the case of `Fc1ccccc1-c1nccc2[nH]c(-c3n[nH]c4ncc(-c5cn[nH]c5)cc34)cc12` [Compound 539, 3-(4-(2-Fluorophenyl)-1H-pyrrolo[3,2-c]pyridin-2-yl)-5-(1H-pyrazol-4-yl)-1H-pyrazolo[3,4-b]pyridine], in experiment [1], the Emax came to 49%. In addition, the EC50 in the experiment with SW480 colon cancer cells stood at 261 nM; with IL-6 in THP-1 cells, 101 nM; in experiment [2], 76 nM; in experiment [3], 56 nM.

Consider `CCCC(=O)Nc1cncc(-c2cnc3[nH]nc(-c4cc5cnccc5[nH]4)c3c2)c1` [Compound 269, N-(5-(3-(1H-Pyrrolo[3,2-c]pyridin-2-yl)-1H-pyrazolo[3,4-b]pyridin-5-yl)pyridin-3-yl)butyramide], for which, in experiment [1], the Emax was 100%. For the same molecule, the EC50 turned out to be 3350 nM in the experiment on SW480 colon cancer cells, 1020 nM with IL-6 in THP-1 cells, 2260 nM in experiment [2] and 867 nM in experiment [3].

Take `Cc1ccncc1-c1cnc2[nH]nc(-c3cc4c(-c5ccc(F)cc5)nccc4[nH]3)c2c1` [Compound 33, 3-(4-(4-Fluorophenyl)-1H-pyrrolo[3,2-c]pyridin-2-yl)-5-(4-methylpyridin-3-yl)-1H-pyrazolo[3,4-b]pyridine]: the EC50 is 1500 nM in the experiment with SW480 colon cancer cells, above 10000 nM with IL-6 in THP-1 cells, 553 nM in experiment [2] and above 10000 nM in experiment [3]. Also, the results for the inhibition at 10 µM (in the experiment on IL-6 in THP-1 cells; in experiment [3]) were 16.4% and 46.5%, respectively.

On to `Cc1ccncc1-c1cnc2[nH]nc(-c3cc4c(-c5cccs5)nccc4[nH]3)c2c1` [Compound 341, 5-(4-Methylpyridin-3-yl)-3-(4-(thiophen-2-yl)-1H-pyrrolo[3,2-c]pyridin-2-yl)-1H-pyrazolo[3,4-b]pyridine], for which the EC50 in the experiment on SW480 colon cancer cells is 1080 nM; with IL-6 in THP-1 cells, 5110 nM; in experiment [2], 330 nM; in experiment [3] it was 1650 nM.

As for `CN1CCN(c2nccc3[nH]c(-c4n[nH]c5ncc(-c6cncc(CN7CCC(F)(F)C7)c6)cc45)cc23)CC1` [Compound 250, 5-(5-((3,3-Difluoropyrrolidin-1-yl)methyl)pyridin-3-yl)-3-(4-(4-methylpiperazin-1-yl)-1H-pyrrolo[3,2-c]pyridin-2-yl)-1H-pyrazolo[3,4-b]pyridine], the EC50 in the experiment on SW480 colon cancer cells was 3150 nM; with IL-6 in THP-1 cells it was 400 nM; in experiment [2] it was 4940 nM; in experiment [3] it was 3650 nM.

As for `c1cc2[nH]c(-c3n[nH]c4ncc(-c5cncc(CN6CCCC6)c5)cc34)cc2c(-c2ccoc2)n1` [Compound 322, 3-(4-(Furan-3-yl)-1H-pyrrolo[3,2-c]pyridin-2-yl)-5-(5-(pyrrolidin-1-ylmethyl)pyridin-3-yl)-1H-pyrazolo[3,4-b]pyridine], the EC50 in the experiment on SW480 colon cancer cells is 2340 nM; in the experiment on IL-6 in THP-1 cells, above 10000 nM; in experiment [2] it was 2210 nM; in experiment [3] it was 4050 nM. The inhibition at 10 µM in the experiment with IL-6 in THP-1 cells was determined as 29.4%.

As to `CN1CCN(c2nccc3[nH]c(-c4n[nH]c5ncc(-c6cncc(NC(=O)CC7CCNCC7)c6)cc45)cc23)CC1` [Compound 641, N-(5-(3-(4-(4-Methylpiperazin-1-yl)-1H-pyrrolo[3,2-c]pyridin-2-yl)-1H-pyrazolo[3,4-b]pyridin-5-yl)pyridin-3-yl)-2-(piperidin-4-yl)acetamide], the EC50 (in the experiment with SW480 colon cancer cells; in the experiment on IL-6 in THP-1 cells; in experiment [2]; in experiment [3]) was above 10000 nM each time. Also, the inhibition at 10 µM in the experiment on SW480 colon cancer cells was found to be 6.5%; in the experiment with IL-6 in THP-1 cells it was 7.6%; in experiment [2], 0%; in experiment [3], 0%.

In the case of `Oc1cncc(-c2cnc3[nH]nc(-c4cc5c(-c6cccs6)nccc5[nH]4)c3c2)c1` [Compound 709, 5-(3-(4-(Thiophen-2-yl)-1H-pyrrolo[3,2-c]pyridin-2-yl)-1H-pyrazolo[3,4-b]pyridin-5-yl)pyridin-3-ol], the EC50 in the experiment with SW480 colon cancer cells was 2480 nM; in the experiment with IL-6 in THP-1 cells it was above 10000 nM; in experiment [2], 289 nM; in experiment [3] it was 768 nM. The inhibition at 10 µM in the experiment on IL-6 in THP-1 cells was determined as 48.9%.

As for `CC(C)(C)C(=O)Nc1cncc(-c2cnc3[nH]nc(-c4cc5c(N6CCCCC6)nccc5[nH]4)c3c2)c1` [Compound 176, N-(5-(3-(4-(Piperidin-1-yl)-1H-pyrrolo[3,2-c]pyridin-2-yl)-1H-pyrazolo[3,4-b]pyridin-5-yl)pyridin-3-yl)pivalamide], the EC50 (with SW480 colon cancer cells; in the experiment on IL-6 in THP-1 cells; in experiment [2]; in experiment [3]) was above 10000 nM throughout. Besides, the inhibition at 10 µM with SW480 colon cancer cells is 5.2%; in the experiment on IL-6 in THP-1 cells, 25.9%; in experiment [2], 28.2%; in experiment [3], 18.2%.
